Experimental findings from patent publication US20050026845A1, “Pharmaceutical/cosmetic compositions comprising the lysine-D-proline-valine tripeptide” (priority 1995, published 2005) are described below.

Non-standard residues stand in square brackets, D forms with d. Residues, ends and D or L forms follow the SMILES beside them.

In general, % inhibition refers to the share of the control response that was lost under treatment.

The subject of one assay is catagenic papilla cells. Briefly: Inhibition of IL-1α-induced production of PGE2 by catagenic papilla cells cultured in vitro. To be noted: 10 μM tripeptide; for PGE2: IL-1α 10 ng/ml, control 9.2, IL-1α alone 100.2; for % inhibition: PGE2 induced by IL-1α 10 ng/ml. It counts as cell-based. Here is the method: Measurement of the inhibition of the production of PGE2 by catagenic papilla cells cultured in vitro.
The cells (1,000 per well), at the 24th passage, were incubated in 199 medium marketed by Gibco in the presence of 1% foetal calf serum and of antibiotics. 20 hours later, the medium was replaced by an identical medium, but containing the tripeptides to be evaluated at a final concentration of 10 μM. 5 hours later, interleukin-1α was added at a final concentration of 10 ng/ml. 20 hours later, the PGE2 levels produced by the cultured papilla cells were evaluated by means of a Biotrack kit marketed by Amersham, the manufacturer's instructions being followed. This method thus made it possible to evaluate the inhibiting effect of these tripeptides on the production of PGE2 induced by a proinflammatory cytokine: interleukin-1α.

The next assay concerns interleukin-1α. The assay can be described thus: Production of interleukin-1α in the supernatant of plucked hairs (ELISA). It counts as cell-based, human. The note with it: 20 hours; for % of inhibition: IL-1α in supernatant; for IL-1α: plucked hairs from inflammatory alopecia, control 21.8 pg/ml. Here is the method: Dose-response activity of the Ac-LPV-NH2* tripeptide with respect to the production of interleukin-1α in the supernatant of plucked hairs emanating from a patient afflicted with inflammatory alopecia.
Plucked hairs were removed from the region of the vertex of a volunteer suffering from inflammatory alopecia. They were placed in a Williams' survival medium E (marketed by Gibco BRL) containing penicillin G (100 units/ml), streptomycin S (100 μg/ml) and amphotericin (250 ng/ml), in the presence or in the absence (control) of the Ac-LPV-NH2* tripeptide, synthesized to order by Neosystem S.A. (Strasbourg), at the doses indicated. After incubating for 20 hours, the culture supernatants were collected in a tube and then centrifuged for 5 minutes at 14,000 revolutions/minute (Eppendorff centrifuge, model 5415C). The supernatants were then collected in a clean tube and placed at 4° C.
The interleukin-1α concentration was then evaluated with respect to 100 μl of supernatant by means of a Biotrak ELISA kit marketed by Amersham, according to the manufacturer's instructions.
For orientation: An ELISA detects its analyte on a solid surface through an enzyme-linked reagent.

The subject of assay [1] is IL-1α. Briefly: Expression of IL-1α mRNA in plucked hairs (RT-PCR, relative to GAPDH), 3 h 30 min. It counts as cell-based, human. To be noted: treated batch vs control batch (100%), dose not given. How it is done: (§1) Inhibition of the expression of the messenger RNAs of proinflammatory and inflammatory cytokines in response to the Ac-LPV-NH2* tripeptide.
(§2) Ten plucked hairs were removed from the region of the vertex of a volunteer suffering from inflammatory alopecia. These were placed in a Williams' survival medium E (marketed by Gibco BRL) containing penicillin G (100 units/ml), streptomycin S (100 μg/ml) and amphotericin (250 ng/ml), in the presence (treated batch) or in the absence (control) of the Ac-LPV-NH2* tripeptide, synthesized to order by Neosystem S.A., (Strasbourg).
(§3) After incubating for 3 h, 30 min, the messenger RNAs corresponding to these two batches of hair were purified from a “quick prep mRNA purification kit” marketed by Pharmacia. DNAs complementary to these mRNAs were then prepared by means of a reverse transcription kit marketed by Pharmacia, the manufacturer's instructions being followed, and then subjected to a polymerization chain reaction (PCR) stage by using primers specific for the mRNAs of glyceraldehyde-3-phosphate dehydrogenase (GAPDH), of IL-1α, of the type-1 IL-1 receptor and of the type-2 IL-1 receptor. The amounts of amplified DNA were then evaluated by electrophoresis on 1.5% agarose gel in the presence of ethidium bromide. […]

Assay [2] relates to type-1 IL-1 receptor (IL-1R1). The assay can be described thus: Expression of type-1 IL-1 receptor mRNA in plucked hairs (RT-PCR, relative to GAPDH), 3 h 30 min. It counts as cell-based, human. The note with it: treated batch vs control batch (100%), dose not given. How it is done:
as §1, §2, §3

The subject of assay [3] is IL-1α. The assay can be described thus: Expression of the mRNAs of IL-1α from the IL-1α/GAPDH ratio, plucked hairs of two donors, 20 hours. It counts as cell-based, human. Here is the method: Inhibiting effect of Ac-LPV-NH2* on the expression of the mRNAs of IL-1α, calculated from the IL-1α/GAPDH ratio.
5 hairs were plucked from two different donors and were then incubated for 20 hours at 37° C. (5% CO2) in Williams' medium E supplemented with antibiotics and with glutamine and in the presence of Ac-LPV-NH2* at the concentrations indicated. A control was carried out in which there was no peptide added.

With `CC(=O)N[C@@H](CCCCN)C(=O)N1CCC[C@@H]1C(=O)N[C@H](C(N)=O)C(C)C` [Ac-L-(D)P-V-NH2***, Acetyl-(L) Lys-(D) Pro-(L) Val-NH2] (Ac-Lys-[dP]-Val-NH2), in the assay on catagenic papilla cells, the PGE2 worked out at 24.6 pg/mL and the “% inhibition” value is recorded as 75%.

With `CC(=O)N[C@H](CCCCN)C(=O)N1CCC[C@@H]1C(=O)N[C@@H](C(N)=O)C(C)C` [Acetyl-(D) Lys-(D) Pro-(D) Val-NH2] (Ac-[dK]-[dP]-[dV]-NH2), the “% of inhibition” value came out at 49% in the assay with interleukin-1α (dose 1 μM) and 72% in the assay on interleukin-1α (dose 10 μM). Moreover, the IL-1α with interleukin-1α (dose 1 μM) came to 11.1 pg/mL; in the assay on interleukin-1α (dose 10 μM) it was 6.1 pg/mL. Moreover, the “% of expression IL-1α” value with IL-1α [1] is 0%. Besides, the “% of expression IL-1R1” value in assay [2] stood at 26%. In addition, the “expression of the mRNAs of IL-1α, % of the control” value in the assay on IL-1α [3] (donor A, 1 μM) is recorded as 51%; with IL-1α [3] (donor A, 10 μM) it was 28%; with IL-1α [3] (donor B, 0.1 μM), 53%; in the assay with IL-1α [3] (donor B, 1 μM), 62%; with IL-1α [3] (donor B, 10 μM), 28.7%. Moreover, the PGE2 with catagenic papilla cells worked out at 28.0 pg/mL. Also, in the assay on catagenic papilla cells, the “% inhibition” value came out at 78%.

Regarding `CC(=O)N[C@@H](CCCCN)C(=O)N1CCC[C@H]1C(=O)N[C@H](C(N)=O)C(C)C` [Acetyl-(L) Lys-(L) Pro-(L) Val-NH2, reference compound] (Ac-Lys-Pro-Val-NH2), in the assay on catagenic papilla cells, the PGE2 was 10.0 pg/mL and the “% inhibition” value worked out at 90%.
